Assay results published in paper PMC11543753, “The Ortholog Receptor Or67d in Drosophila Bipectinata is able to Detect Two Different Pheromones” (Journal of Chemical Ecology, 2024).

Columns and labels:
[1] = test system: T1, DbipOr67d (Drosophila bipectinata); experiment: single sensillum recording, spike rate of at1 neurons; type: cell-based; details: agonist; odor 10^-3 (v/v) in dichloromethane, 0.5 s puff; D. melanogaster at1 neurons expressing DbipOr67d; also tested in wild-type D. bipectinata at1
T1 construct: with Odorant receptor coreceptor (Drosophila melanogaster)

[2] = biological target: T2, D. melanogaster Or67d (Drosophila melanogaster, UniProt Q9VT92); experiment: as above; type: cell-based; details: agonist; odor 10^-3 (v/v) in dichloromethane, 0.5 s puff; native at1 neurons of wild-type CS flies
T2 construct: native receptor in at1 trichoid sensillum neurons of wild-type flies; with Odorant receptor coreceptor
T2 sequence (Q9VT92 1-391): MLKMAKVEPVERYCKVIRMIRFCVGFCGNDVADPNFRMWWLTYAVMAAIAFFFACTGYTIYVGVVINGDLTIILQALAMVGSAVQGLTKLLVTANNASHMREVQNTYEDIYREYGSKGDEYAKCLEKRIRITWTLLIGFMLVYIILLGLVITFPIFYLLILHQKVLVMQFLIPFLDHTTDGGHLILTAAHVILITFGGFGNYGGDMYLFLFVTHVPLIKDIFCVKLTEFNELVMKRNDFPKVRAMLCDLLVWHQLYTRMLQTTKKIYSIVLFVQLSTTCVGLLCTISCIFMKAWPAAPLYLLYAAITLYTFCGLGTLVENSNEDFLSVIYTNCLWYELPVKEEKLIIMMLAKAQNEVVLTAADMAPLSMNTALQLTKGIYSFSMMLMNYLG
T2 sequence (Q9VNB5 1-486 partner): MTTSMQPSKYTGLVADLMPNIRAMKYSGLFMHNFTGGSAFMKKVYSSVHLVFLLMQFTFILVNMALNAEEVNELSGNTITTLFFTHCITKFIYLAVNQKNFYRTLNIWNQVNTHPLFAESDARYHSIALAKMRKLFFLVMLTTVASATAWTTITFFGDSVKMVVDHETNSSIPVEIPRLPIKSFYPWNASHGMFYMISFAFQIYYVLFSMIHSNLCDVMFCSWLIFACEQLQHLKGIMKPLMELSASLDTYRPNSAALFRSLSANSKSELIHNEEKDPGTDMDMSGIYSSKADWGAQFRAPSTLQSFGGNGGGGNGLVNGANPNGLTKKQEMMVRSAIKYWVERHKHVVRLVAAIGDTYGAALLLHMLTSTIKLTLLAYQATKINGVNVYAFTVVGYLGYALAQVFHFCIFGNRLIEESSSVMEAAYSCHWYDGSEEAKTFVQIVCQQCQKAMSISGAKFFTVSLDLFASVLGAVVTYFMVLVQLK

SMILES	single sensillum recording, spike rate of at1 neurons [1]	single sensillum recording, spike rate of at1 neurons [2]
CCCCCCCC/C=C\CCCCCCCCCCOC(C)=O [Z11-20:Ac, (Z)-11-eicosen-1-yl acetate]	Drosophila melanogaster OSNs ectopically expressing D.bipOr67d respond to cVA and Z11-20:Ac.	–
CCCCCC/C=C\CCCCCCCCCCOC(C)=O [cVA, (Z)-11-octadecen-1-yl acetate]	Drosophila melanogaster OSNs ectopically expressing D.bipOr67d respond to cVA and Z11-20:Ac.	D. melanogaster CS flies exhibited significant responses only to cVA (Fig. 1c)
